Assay results: patent US20260159500A1, “KINESIN KIF18A INHIBITOR AND USE THEREOF” (SHANGHAI APEIRON THERAPEUTICS COMPANY LIMITED, priority 2022, published 2026)
Where two headings read alike, the source gives them in different places.

Key:
[1] = biological target: T1, Human KIF18A (amino acid sequence 1-417) (Homo sapiens, UniProt Q8NI77); test: Enzymatic activity test (ADP-Glo, microtubule-stimulated KIF18A ATPase); assay type: biochemical; settings: 60 μg/mL microtubules, 25 μM ATP, 2.5 nM KIF18A protein, 120 min at ambient temperature, read-out: KIF18A_nM
T1 construct: purchased Viva Biotech (Shanghai) Ltd
T1 sequence (Q8NI77 1-417): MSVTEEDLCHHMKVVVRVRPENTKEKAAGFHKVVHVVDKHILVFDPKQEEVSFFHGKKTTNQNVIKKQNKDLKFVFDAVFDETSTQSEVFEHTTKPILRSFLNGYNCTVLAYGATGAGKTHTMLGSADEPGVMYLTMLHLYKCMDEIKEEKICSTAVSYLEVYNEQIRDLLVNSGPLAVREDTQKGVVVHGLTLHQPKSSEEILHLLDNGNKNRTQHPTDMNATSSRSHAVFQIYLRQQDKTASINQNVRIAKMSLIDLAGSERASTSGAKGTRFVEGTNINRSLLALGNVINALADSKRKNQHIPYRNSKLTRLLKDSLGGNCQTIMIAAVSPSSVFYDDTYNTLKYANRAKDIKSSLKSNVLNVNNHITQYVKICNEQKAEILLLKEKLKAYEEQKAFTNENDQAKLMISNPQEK
How it was run: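 Microtubule-stimulated ATPase of KIF18A(1-417) run with 60 μg/mL microtubules, 25 μM ATP and 2.5 nM enzyme, compounds at 0-10 μM final, 120 min at ambient temperature. ADP formed was read by ADP-Glo chemiluminescence after two 30-min reagent incubations.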

OVCAR3 cells = test: Cell proliferation activity test in OVCAR3 cells (CyQUANT Direct); assay type: cell-based; settings: 3 days incubation, CyQUANT fluorescence detection, read-out: OVCAR-3_IC50_nM
How it was run: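 Log-phase cells in RPMI-1640 with 10% FBS were seeded overnight, then exposed to compound at final 0–10 μM (0.2% DMSO) for 3 days at 37 °C, 5% CO2. Proliferation was read by CyQUANT Direct fluorescence after 60 min at 37 °C.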

HT29 cells = test: CyQuant cell proliferation activity test in HT29 cells; assay type: cell-based; settings: 2000 cells per well, 3 days incubation, IC50 by XLFIT, read-out: HT29_IC50_nM
How it was run: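 Cells seeded at 2000/well in RPMI-1640 with 10% FBS, overnight, then exposed 3 days at 37 °C to compound from 3000 nM top, 3-fold, 9 points, 0.2% DMSO. CyQuant read after 1 h; IC50 from curve fit.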

IC50 [1]	IC50 (OVCAR3 cells; Homo sapiens, OVCAR-3, 72 h)	IC50 (HT29 cells; Homo sapiens, HT-29, 72 h)	SMILES	IC50 (OVCAR3 cells)	IC50 (HT29 cells)
306 nM	119 nM	100 nM	N#Cc1ccc2cc(NC(=O)c3ccc(NS(=O)(=O)CCO)cc3N3CCC4(CC3)CC4)cc(N3CCC(F)(F)CC3)c2n1 [Example 68, N-(2-cyano-8-(4,4-difluoropiperidin-1-yl)quinolin-6-yl)-4-((2-hydroxyethyl)sulfon amido)-2-(6-azaspiro[2.5]oct-6-yl)benzamide]		
121 nM	121 nM	25 nM	Cn1ccc2cc(NC(=O)c3ccc(NS(=O)(=O)CCO)cc3N3CCC4(CC3)CC4)nc(N3CCC(F)(F)CC3)c21 [Example 37]		
27 nM	7 nM	10 nM	O=C(Nc1cc(N2CCC(F)(F)CC2)c2occc2c1)c1ccc(NS(=O)(=O)CCO)cc1N1CCC2(CC1)CC2 [Example 30, N-(7-(4,4-difluoropiperidin-1-yl)benzofuran-5-yl)-4-(2-hydroxyethylsulfonamido)-2-(6-azaspiro[2.5]octan-6-yl)benzamide]		

SMILES	IC50 [1]	IC50 (OVCAR3 cells; Homo sapiens, OVCAR-3, 72 h)	IC50 (HT29 cells; Homo sapiens, HT-29, 72 h)	IC50 (OVCAR3 cells)	IC50 (HT29 cells)
Cc1cc2cc(NC(=O)c3ccc(NS(=O)(=O)CCO)cc3N3CCC4(CC3)CC4)cc(N3CCC(F)(F)CC3)c2nc1N [Example 89, N-[2-Amino-8-(4,4-difluoropiperidinyl)-3-methyl (6-quinolinyl)](2-(6-azaspiro[2.5]octan-6-yl)-4-{[(2-hydroxyethyl)sulfonyl]amino}phenyl)formamide]	179 nM			32 nM	32 nM
